The text below walks through data of US20100120715A1, “BETA-LACTAMASE INHIBITORS” (priority 2007, published 2010).

One assay has as its target T1, Class A ESBL CTXM-15 (Escherichia coli, UniProt Q9EXV5).
T1 construct: made in house; host or cells: E. coli BL21(DE3)
The assay is described as follows: β-lactamase enzyme inhibition (nitrocefin hydrolysis), CTXM-15. The format is biochemical. The settings on record: purified enzyme; nitrocefin 100 μM, PBS pH 7.0; read-out: CTXM-15 IC50 Range. The method in brief:
(§1)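 Native untagged enzymes were expressed in E. coli BL21(DE3) and purified by cation exchange and gel filtration. Compound series (100–0.005 μM in PBS pH 7.0, before addition of an equal enzyme volume) were preincubated with enzyme 10 min at 37°C. Nitrocefin (100 μM final) hydrolysis was read kinetically at 486 nm for 10 min, and IC50 was taken as 50% reduction of initial rate versus no-inhibitor wells.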

Assay [1] deals with T2, Class A carbapenemase KPC-2 (Klebsiella pneumoniae, UniProt Q9F663).
T2 construct: made in house; host or cells: E. coli BL21(DE3)
The assay is described as follows: β-lactamase enzyme inhibition (nitrocefin hydrolysis), KPC-2. The format is biochemical. To be noted: purified enzyme; nitrocefin 100 μM, PBS pH 7.0; read-out: KPC-2 IC50 Range. In outline: as §1

In assay [2] the test system is K. pneumoniae expressing the Class A carbapenemase KPC-2. Nature of the assay: microbe, parasite or virus in culture. To be noted: in the presence of fixed 8 μg/mL Ceftazidime.
The next assay concerns the target T3, Class C P99 AmpC (Enterobacter cloacae, UniProt P05364).
T3 construct: made in house; host or cells: E. coli BL21(DE3)
The format is biochemical. The settings on record: purified enzyme; nitrocefin 100 μM, PBS pH 7.0; read-out: P99 AmpC IC50 Range. In outline:
as §1

In the next assay the target is T4, Class A ESBL SHV-5 (Klebsiella pneumoniae, UniProt P0A3M1).
T4 construct: made in house; host or cells: E. coli BL21(DE3) for purified enzyme; E. coli cells containing SHV-5 for extracts
The format is biochemical, E. coli. The settings on record: nitrocefin 100 μM, PBS pH 7.0, read-out: SHV-5 IC50 Range.

Assay [3] concerns E. coli expressing the Class A ESBL SHV-5. The assay is described as follows: microbe, parasite or virus in culture. The format is cell-based. To be noted: in the presence of fixed 8 μg/mL Ceftazidime.
For assay [4], the system named is E. cloacae expressing the Class C P99+ AmpC. The assay is described as follows: microbe, parasite or virus in culture. The format is cell-based. The settings on record: in the presence of fixed 8 μg/mL Ceftazidime. The method in brief: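 Broth microdilution potentiation assay in cation-adjusted Mueller Hinton broth: compound was titrated 8 to 0.015 μg/mL final against a fixed 8 μg/ml cephalosporin. Strains were pre-grown 3-5 h with 50 μg/mL ampicillin and inoculated per CLSI. MIC was read visually after 16-20 h at 37° C.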

Assay [5] deals with K. pneumoniae expressing the Class A ESBL CTX-M-15. Nature of the assay: microbe, parasite or virus in culture. In kind it is cell-based. The settings on record: in the presence of fixed 8 μg/mL Ceftazidime.
[6] abbreviates: purified beta-lactamase enzyme (Examples 1 and 31-64).

Read-outs that look alike come from different tables or passages of the source. Where only a bound is given, the exact number is not on record here.

As a reminder, the IC50 is the concentration needed to halve the response being measured.

T2 sequence (Q9F663 25-293 limits assumed): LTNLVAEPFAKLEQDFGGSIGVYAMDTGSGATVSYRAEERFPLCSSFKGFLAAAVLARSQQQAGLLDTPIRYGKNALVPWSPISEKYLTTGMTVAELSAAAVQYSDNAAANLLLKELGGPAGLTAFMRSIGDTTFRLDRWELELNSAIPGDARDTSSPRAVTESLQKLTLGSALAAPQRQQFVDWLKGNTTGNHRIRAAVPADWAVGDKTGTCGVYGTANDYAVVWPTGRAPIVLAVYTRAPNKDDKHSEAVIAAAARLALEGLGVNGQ
T3 sequence (P05364 21-381): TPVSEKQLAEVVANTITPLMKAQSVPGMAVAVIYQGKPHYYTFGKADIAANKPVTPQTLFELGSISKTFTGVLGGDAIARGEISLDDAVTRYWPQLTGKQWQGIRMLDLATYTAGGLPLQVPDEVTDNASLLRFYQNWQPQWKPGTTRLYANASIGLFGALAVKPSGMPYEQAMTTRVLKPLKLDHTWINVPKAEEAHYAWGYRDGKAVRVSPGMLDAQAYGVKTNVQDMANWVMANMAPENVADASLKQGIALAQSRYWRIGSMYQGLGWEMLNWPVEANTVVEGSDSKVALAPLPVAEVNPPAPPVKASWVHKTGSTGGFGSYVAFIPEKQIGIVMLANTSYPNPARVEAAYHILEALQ
T4 sequence (P0A3M1 22-286): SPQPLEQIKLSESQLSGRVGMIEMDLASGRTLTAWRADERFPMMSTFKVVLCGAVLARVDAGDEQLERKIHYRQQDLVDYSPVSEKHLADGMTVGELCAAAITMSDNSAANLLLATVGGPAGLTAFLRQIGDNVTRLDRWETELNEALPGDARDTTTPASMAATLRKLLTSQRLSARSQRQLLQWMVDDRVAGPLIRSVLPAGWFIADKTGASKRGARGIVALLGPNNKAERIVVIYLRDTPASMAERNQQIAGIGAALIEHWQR
T1 sequence (Q9EXV5 entry or part of it): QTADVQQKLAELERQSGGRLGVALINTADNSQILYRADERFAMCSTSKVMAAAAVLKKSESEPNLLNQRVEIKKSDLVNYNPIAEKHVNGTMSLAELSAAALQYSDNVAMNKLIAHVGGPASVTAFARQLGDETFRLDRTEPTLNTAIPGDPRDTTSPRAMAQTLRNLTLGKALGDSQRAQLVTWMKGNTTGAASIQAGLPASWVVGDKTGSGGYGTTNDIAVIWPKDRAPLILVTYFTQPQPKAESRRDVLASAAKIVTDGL

`CCCCC(=O)N[C@@H](Cc1cccc(C(=O)O)c1O)B(O)O` [Example 23, (1R)-1-(pentanoylamino)-2-(2-hydroxy-3-carboxyphenyl)ethyl-1-boronic acid]: the IC50 was less than 10 nM on Class A ESBL CTXM-15, less than 10 nM in assay [1], 10 to 100 nM at Class C P99 AmpC and 10 to 100 nM on Class A ESBL SHV-5 (cellular extracts of E. coli containing SHV-5 (Examples 2-30)). Further, the “MIC of example compound, K. pneumoniae KPC-2 + 8 μg/mL CAZ” value (“MIC … K. pneumoniae KPC-2 + 8 μg/mL CAZ” for short) in assay [2] is recorded as “C (C represents an MIC of <1 μg/mL)”. Further, the “MIC of example compound, E. coli SHV-5 + 8 μg/mL CAZ” value (from here on “MIC … E. coli SHV-5 + 8 μg/mL CAZ”) in assay [3] is listed as “C (C represents an MIC of <1 μg/mL)”. Also, in assay [4], the “MIC of example compound, E. cloacae P99 AmpC + 8 μg/mL CAZ” value (“MIC … E. cloacae P99 AmpC + 8 μg/mL CAZ” below) is given as “C (C represents an MIC of <1 μg/mL)”. Further, in assay [5], the “MIC of example compound, K. pneumoniae CTX-M-15 + 8 μg/mL CAZ” value (“MIC … K. pneumoniae CTX-M-15 + 8 μg/mL CAZ” for short) is listed as “C (C represents an MIC of <1 μg/mL)”.

Turning to `Nc1nc(CC(=O)N[C@@H](Cc2cccc(C(=O)O)c2O)B(O)O)cs1.O=CO` [Example 39, (1R)-1-(2-Amino-thiazol-4-yl)-acetylamino-1-(3-carboxy-2-hydroxy)benzyl-methylboronic acid formate salt], the IC50 at Class A ESBL CTXM-15 is less than 10 nM; in assay [1] it was 100 to 1000 nM; on Class C P99 AmpC, less than 10 nM; on Class A ESBL SHV-5 (setting [6]), less than 10 nM. The “MIC … K. pneumoniae KPC-2 + 8 μg/mL CAZ” value in assay [2] is listed as “C (C represents an MIC of <1 μg/mL)”. In assay [3], the “MIC … E. coli SHV-5 + 8 μg/mL CAZ” value is “C (C represents an MIC of <1 μg/mL)”. The “MIC … E. cloacae P99 AmpC + 8 μg/mL CAZ” value in assay [4] is recorded as “C (C represents an MIC of <1 μg/mL)”. Further, the “MIC … K. pneumoniae CTX-M-15 + 8 μg/mL CAZ” value in assay [5] was “C (C represents an MIC of <1 μg/mL)”.

Turning to `NCC(=O)N[C@@H](Cc1cccc(C(=O)O)c1O)B(O)O.O=CO` [Example 41, (1R)-1-(2-aminoacetylamino)-2-(2-hydroxy-3-carboxyphenyl)ethyl-1-boronic acid formate salt], the IC50 on Class A ESBL CTXM-15 is 100 to 1000 nM; in assay [1], 10 to 100 nM; at Class C P99 AmpC, more than 1000 nM; at Class A ESBL SHV-5 (setting [6]) it was more than 1000 nM. Besides, the “MIC … K. pneumoniae KPC-2 + 8 μg/mL CAZ” value in assay [2] is given as “C (C represents an MIC of <1 μg/mL)”. Also, the “MIC … E. coli SHV-5 + 8 μg/mL CAZ” value in assay [3] is “A (A represents an MIC >8 μg/mL)”. The “MIC … E. cloacae P99 AmpC + 8 μg/mL CAZ” value in assay [4] is “A (A represents an MIC >8 μg/mL)”. For the same molecule, in assay [5], the “MIC … K. pneumoniae CTX-M-15 + 8 μg/mL CAZ” value is “A (A represents an MIC >8 μg/mL)”.

`Cl.O=C(Cc1ccncc1)N[C@@H](Cc1cccc(C(=O)O)c1O)B(O)O` [Example 52, (1R)-1-(4-Pyridylacetylamino)-2-(2-hydroxy-3-carboxyphenyl)ethyl-1-boronic acid hydrochloride]: the IC50 (at Class A ESBL CTXM-15; in assay [1]; on Class C P99 AmpC; at Class A ESBL SHV-5 (setting [6])) was less than 10 nM throughout. Moreover, the “MIC … K. pneumoniae KPC-2 + 8 μg/mL CAZ” value in assay [2] is “C (C represents an MIC of <1 μg/mL)”. The “MIC … E. coli SHV-5 + 8 μg/mL CAZ” value in assay [3] is “C (C represents an MIC of <1 μg/mL)”. Also, the “MIC … E. cloacae P99 AmpC + 8 μg/mL CAZ” value in assay [4] is on record as “C (C represents an MIC of <1 μg/mL)”. Besides, the “MIC … K. pneumoniae CTX-M-15 + 8 μg/mL CAZ” value in assay [5] is listed as “C (C represents an MIC of <1 μg/mL)”.

Take `O=C(N[C@@H](Cc1cccc(C(=O)O)c1O)B(O)O)c1cn2ccsc2n1` [Example 56, (1R)-1-(Imidazo[2,1-b]thiazole-6-carbonyl-amino)-2-(2-hydroxy-3-carboxyphenyl)ethyl-1-boronic acid]: the IC50 on Class A ESBL CTXM-15 fell in the range of 10 to 100 nM; in assay [1], 100 to 1000 nM; at Class C P99 AmpC, 100 to 1000 nM; at Class A ESBL SHV-5 (setting [6]) it was 10 to 100 nM. Also, the “MIC … E. coli SHV-5 + 8 μg/mL CAZ” value in assay [3] is recorded as “A (A represents an MIC >8 μg/mL)”. In assay [4], the “MIC … E. cloacae P99 AmpC + 8 μg/mL CAZ” value is given as “A (A represents an MIC >8 μg/mL)”. In addition, the “MIC … K. pneumoniae CTX-M-15 + 8 μg/mL CAZ” value in assay [5] is on record as “A (A represents an MIC >8 μg/mL)”.
